{"source": "patent US10258620B2", "about": "“Crystalline form of 5-amino-2,3-dihydrophthalazine-1,4-dione sodium salt, pharmaceutical preparations containing the same and method for the production of said form” (METRIOPHARM AG, priority 2014, dated 2019)", "key": {"[1]": {"conditions": "FIG. 8, increasing proportion of H2O"}, "[2]": {"conditions": "determination repeated 10 times", "experimental": "After drying all forms produced were vortexed for 1 minute to let bigger agglomerates carefully disaggregate.\nA sample of each of the respective solids to be determined was filled into a plastic funnel for solids (diameter of the outlet: 11 mm) with closable outlet which was mounted in a height of 20 mm above the collecting vessel. The funnel used was always filled half-full, thereby ensuring that there was always more sample material provided than necessary for filling the collecting vessel. After opening the outlet the respective solids trickled into the collecting vessel until it was filled up above the upper rim. The supernatant of the respective solids was removed with a spatula and the filled collecting vessel was weighed out with a high-resolution balance. The determination for each form was repeated 10 times and the mean value was calculated (Table 3)."}, "physchem": {"assay": "physchem", "experimental": "Determination of the maximum solubility of crystalline form III in water at RT was carried out with UV-Vis spectroscopy in an Agilent Cary 300 UV-Vis spectrometer. This process is based on a linear correlation between the concentration of a dissolved solid and the calculated absorption at a particular wavelength (Beer-Lambert law).\nA stock solution of 0.502 g of form III in 2 mL H2O (demineralized) was produced. For the generating a 3-point calibration curve three solutions were produced after appropriate dilution thereof with concentrations of 0.5041 mmol/l, 0.2521 mmol/l and 0.1260 mmol/l, and their respective absorption at 347 nm was determined. […] Further, a supersaturated solution of 0.531 g of form III in 2 mL H2O (demineralized) was produced to determine the maximum concentration. 100 μL of the solution were 2000-fold diluted and the absorption at 347 nm was determined as well."}, "[3]": {"conditions": "methanol or ethanol", "source_text": "In polymorphs of crystalline solids phase transitions occur depending on the thermodynamic stability of the individual forms. […] Different transformation processes are known. […] In this respect so-called slurry experiments can provide information on the thermodynamic stability of polymorphs of a solid.\nTo compare the stability under the influence of solvents 50:50 (wt %) solid phase mixtures were produced of form III according to the invention and form I as well as of form III according to the invention and form II.\nIn each case 0.05 g of the respective solid phase mixture were suspended in 5 mL 2-propanol, methanol or ethanol, respectively. The mixture of form III and form I was stirred at RT for 3 days. The mixture of form III and form II was stirred at RT for 24 h. The suspensions were filtered under vacuum utilizing a Büchner funnel. The remaining crystalline solid was completely dried at RT. X-ray powder diffraction patterns of the resulting crystalline solids were recorded with a Bragg-Brentano diffractometer (STOE STADI P) provided with a DECTRIS MythenlK detector using mono-chromatized (Ge111-monochromator) copper emissions Cu K(α1) (wave length λ=1.54187 Å)."}, "[4]": {"conditions": "30-600° C., synthetic air, heating rate 10° C./min", "experimental": "The determination was carried out by means of simultaneous thermogravimetry (differential scanning calorimetry) at a Linseis L81-077 coupled with mass spectroscopy measurements with a Netzsch STA 449 C (thermobalance) with MS and FTIR coupling over 30-600° C. under synthetic air (4 N2:1 O2) and a heating rate of 10° C./min. The data were analyzed with the company software Proteus."}, "IL-6": {"system": "IL-6", "conditions": "PMA-differentiated HL60 cells, pre-stimulation 1 h with 1 mmol/l, then 100 ng/mL LPS 24 h, 3 measurements, LPS control 42.81", "experimental": "(§1) For the differentiation to macrophages HL60 cells were treated with phorbol 12-myristate 13-acetate (PMA) in advance. […] The secretion of TNF alpha and IL-6 was determined in the cell supernatant using ELISA testing over 3 measurements, respectively. Table 4 as well as FIGS. 7a and 7b show the respective mean value m and the standard deviation s (GraphPad Prism 5)."}, "TNF alpha": {"system": "TNF alpha", "conditions": "PMA-differentiated HL60 cells, pre-stimulation 1 h with 1 mmol/l, then 100 ng/mL LPS 24 h, 3 measurements, LPS control 30.08", "experimental": "as §1"}, "[5]": {"conditions": "from WO2011/107295A1; cited from earlier work"}, "[6]": {"conditions": "water, thermodynamic from solid"}}, "note": "Counter-ions that a name gives are not always drawn. Like-named read-outs stand apart in the source and are kept apart here."}
{"smiles": "Nc1cccc2c(=O)[nH][nH]c(=O)c12", "note": "[5-amino-2,3-dihydrophthalazine-1,4-dione sodium salt]", "values": [{"measurement": "solubility in a DMSO-H2O mixture with increasing proportion of H2O", "setting": "[1]", "result": "increases continuously"}]}
{"smiles": "Nc1cccc2c(=O)[nH][nH]c(=O)c12", "note": "[Form III, 5-amino-2,3-dihydrophthalazine-1,4-dione sodium salt]", "values": [{"measurement": "Bulk densities (mean ± standard deviation)", "setting": "[2]; sodium salt", "result": "203.5 ± 6.7", "unit": "kg/m^3"}, {"measurement": "solubility in water compared with forms I and II", "setting": "physchem; RT, forms I and II cf. WO2011/107295A1", "result": "less soluble than forms I and II"}, {"measurement": "solubility", "setting": "physchem; [6]", "result": 145, "unit": "mg/mL"}, {"measurement": "solubility thermodynamic", "setting": "physchem; [6]", "result": 730, "unit": "mM"}, {"measurement": "thermodynamic stability versus form I", "setting": "[3]; 50:50 wt % mixture of form I and form III in 2-propanol, stirred at RT for 3 days", "result": "thermodynamically more stable polymorph"}, {"measurement": "thermodynamic stability versus form II", "setting": "[3]; 50:50 wt % mixture of form II and form III in 2-propanol, stirred at RT for 24 h", "result": "thermodynamically more stable polymorph"}, {"measurement": "temperature at which decomposition starts", "setting": "[4]", "result": 391.7, "unit": "°C"}, {"measurement": "IL-6 secretion, mean m", "setting": "IL-6; sodium salt", "result": 34.86, "unit": "pg/mL"}, {"measurement": "TNF-alpha secretion, mean m", "setting": "TNF alpha; sodium salt", "result": 22.15, "unit": "pg/mL"}]}
{"smiles": "Nc1cccc2c(=O)[nH][nH]c(=O)c12", "note": "[Form I, 5-amino-2,3-dihydrophthalazine-1,4-dione sodium salt]", "values": [{"measurement": "Bulk densities (mean ± standard deviation)", "setting": "[2]; sodium salt", "result": "201.9 ± 3.9", "unit": "kg/m^3"}, {"measurement": "IL-6 secretion, mean m", "setting": "IL-6; sodium salt", "result": 41.15, "unit": "pg/mL"}, {"measurement": "TNF-alpha secretion, mean m", "setting": "TNF alpha; sodium salt", "result": 25.28, "unit": "pg/mL"}]}
{"smiles": "Nc1cccc2c(=O)[nH][nH]c(=O)c12", "note": "[Form II, 5-amino-2,3-dihydrophthalazine-1,4-dione sodium salt]", "values": [{"measurement": "Bulk densities (mean ± standard deviation)", "setting": "[2]; sodium salt", "result": "108.6 ± 3.0", "unit": "kg/m^3"}, {"measurement": "IL-6 secretion, mean m", "setting": "IL-6; sodium salt", "result": 36.11, "unit": "pg/mL"}, {"measurement": "TNF-alpha secretion, mean m", "setting": "TNF alpha; sodium salt", "result": 22.16, "unit": "pg/mL"}]}
{"smiles": "Nc1cccc2c(=O)[nH][nH]c(=O)c12", "note": "[Dihydrate, 5-amino-2,3-dihydrophthalazine-1,4-dione sodium salt dihydrate]", "values": [{"measurement": "Bulk densities (mean ± standard deviation)", "setting": "[2]; sodium salt dihydrate", "result": "72.3 ± 4.1", "unit": "kg/m^3"}, {"measurement": "IL-6 secretion, mean m", "setting": "IL-6; sodium salt dihydrate", "result": 40.93, "unit": "pg/mL"}, {"measurement": "TNF-alpha secretion, mean m", "setting": "TNF alpha; sodium salt dihydrate", "result": 26.87, "unit": "pg/mL"}, {"measurement": "solid phase transition temperature", "setting": "[5]", "result": 85, "unit": "°C"}]}
